From patent US20230049330A1, “USE OF QX314 TO PREVENT SYMPATHO[…] ADMINISTRATION OF TRPV1 MODULATORS” (NEUCURES, INC., priority 2020, published 2023)

System: pigs
Test: Intrapericardial administration of RTX alone or RTX in combination with QX-314 in anesthetized pigs; heart rate and blood pressure
Format: in vivo
Settings: 15 mL, RTX 12.5 µg/mL, QX-314 10, 20, 30 or 40 µM where combined, aspirated after 20 minutes
Description: We evaluated the effects of the TRPV1 modulator RTX alone and in combination with QX-314 on cardiovascular function, specifically heart rate and blood pressure, in pigs. Animals were first sedated with telazol (4-8 mg/kg, intramuscular), intubated, and mechanically ventilated. General anesthesia was maintained with isoflurane (1-2%, inhaled). A 12-lead surface electrocardiogram and arterial blood pressure were continuously obtained using a GE Healthcare CardioLab system. Local anesthesia with 1% lidocaine was then administered to the left sternocostal angle before making a small incision. Percutaneous access into the pericardial space was obtained using a Touhy needle under fluoroscopic guidance (see FIG. 1). Contrast was used to visualize the advancement of the needle tip, and intrapericardial access was confirmed by passing a wire through the needle and inducing cardiac ectopy. After confirming access, a sheath was introduced into the pericardial space over the wire. A 12.5 µg/mL RTX solution was prepared by first creating a stock solution of 0.1 mg/mL by dissolving 0.5 mg of RTX powder in 2.5 mL of dimethyl sulfoxide and 2.5 mL of 0.9% sodium chloride, and then diluting the stock solution to 12.5 µg/mL by adding 1.87 mL of it to 13.13 mL of 0.9% sodium chloride. […]

Structure (SMILES): C=C(C)[C@]12C[C@@H](C)[C@@]34O[C@](Cc5ccccc5)(O[C@@H]1[C@@H]3C=C(COC(=O)Cc1ccc(O)c(OC)c1)C[C@]1(O)C(=O)C(C)=C[C@@H]41)O2 [RTX, resiniferatoxin]
- blood pressure change from baseline (FIG. 2B, FIG. 2C): significant increase
- heart rate change from baseline (FIG. 2A): significant increase
